Results taken from a melting point compilation (Tetko et al.).

SMILES	melting point [°C]
O=C(O)CCn1cc(Br)cn1	112 to 114
COc1ccc(Cl)cc1CS(=O)(=O)Cl	69 to 71
O=S(=O)(NCc1ccccc1)c1cccs1	145 to 150
NS(=O)(=O)Cc1ccc(F)cc1	122 to 124
O=C1CCC(C(=O)O)CN1 (stereo not given)	174 to 176
O=c1[nH]c(-c2ccc(F)cc2)cs1	179 to 181
O=C(O)CN1N=C(C(F)(F)F)CC1=O	218 to 220
CCN(CC)C(=O)c1ccc(O)cc1	120 to 122
NC(=O)Cc1csc(-c2ccco2)n1	125 to 127
O=C(O)c1ccc(S(=O)(=O)CCO)cc1	189 to 191
O=C(O)CSCc1ccc(Br)cc1F	57 to 59
NNC(=O)NCC(F)(F)F	68 to 70
CCCc1nnn[nH]1	63 to 65
Nc1cccnc1N1CCCC1	78 to 80
Nc1nc(CN2CCN(c3ccc(F)cc3)CC2)cs1	194 to 196
COc1ccc(C=C[N+](=O)[O-])cc1Cl	95 to 97
O=C(O)c1ccccc1OCc1ccccc1Br	129 to 131
NC(=O)Cn1cc([N+](=O)[O-])cn1	167 to 169
Fc1ccccc1CCNC1=NCCS1	95 to 97
O=C(O)c1cc(S(=O)(=O)Cl)cc(Br)c1Cl	160 to 162
O=[N+]([O-])c1ccccc1C(O)c1cccnc1 (stereo not given)	102 to 104

SMILES	melting point [°C]
Nc1c(I)cccc1C(=O)O	172 to 174
Nc1cc(-c2cccnc2)no1	174 to 176
O=C(O)CCc1nnc(-c2ccccc2)o1	144 to 146
Nc1cc(C(=O)O)ccc1NCCCN1CCOCC1	216 to 218
BrCC1CSc2nnc(-c3ccccc3)n21 (stereo not given)	157 to 159
COc1cccc(NC2=NC(C)(C)CS2)c1	105 to 107
CC(Cl)C(=O)Nc1ccc(N2CCCC2=O)cc1 (stereo not given)	194 to 196
O=C(O)c1cc(N2CCCC2=O)ccc1Cl	159 to 161
Clc1ncnc2c(Br)cccc12	159 to 161
COc1ccc(-c2nn(-c3ccccc3)cc2C(=O)O)cc1	244 to 246
CC1CN(S(=O)(=O)c2ccc(N)cc2)CC(C)O1 (stereo not given)	199 to 203
CC(C)C(N)=S	42 to 44
c1c[nH]c(C2CCCCN2)n1 (stereo not given)	144 to 146
O=S(=O)(CCCl)c1ccc(Br)cc1	110 to 112
O=C(O)CCc1ccc([N+](=O)[O-])cc1[N+](=O)[O-]	124 to 126
O=C1CCCC1Cc1ccccc1[N+](=O)[O-] (stereo not given)	38 to 40
CCN(CC)C(=O)Cc1ccc(N)cc1	87 to 89
O=C1NC(=O)N(CCC2=CCCCC2)C1=O	127 to 129
O=C(CCl)NCc1ccccc1OC(F)(F)F	66 to 68
CCc1n[nH]c(C(=O)O)c1Cl	199 to 201
COC(=O)Nc1ccc(CN)cc1	103 to 105

SMILES	melting point [°C]
Cc1ccc(C(=O)CCl)cc1C	51 to 53
Cn1c(=O)oc2c(C(=O)O)cccc21	309 to 311
O=C(O)CCCCc1ccc(Cl)cc1	64 to 66
O=C(O)c1ccc(CS)c(F)c1	136 to 138
CCC(N)=S	40 to 42
O=C(O)/C(=C\c1ccccc1)c1cccs1	169 to 171
CC(C)c1ccc(-n2ccnc2SCC(=O)O)cc1	80 to 82
O=C(O)C1(c2cccc(C(F)(F)F)c2)CCCCC1	144 to 146
COc1ccc(/C=N/OCC(=O)O)cc1	101 to 103
CC(Cl)C(=O)NCc1ccccc1F (stereo not given)	66 to 68
NC(=O)Cn1c(S)nnc1-c1ccco1	313 to 315
O=C(O)CCc1ccoc1	63 to 65
Cc1nnc2n1CC(C(=O)O)CC2 (stereo not given)	249 to 251
O=C(CCc1ccccc1)Cc1ccccc1	41 to 43
CC(C)(C)NC(=O)c1ccc(C(=O)O)cc1	217 to 219
CC(C)C(C(=O)O)N1CCCS1(=O)=O (stereo not given)	97 to 99
FC(F)(F)c1cccc2c(Cl)ncnc12	144 to 146
NC(=S)NCc1cccc(C(F)(F)F)c1	97 to 99
CN1CCN(CCC(=O)NN)CC1	87 to 89
O=S(=O)(c1cccc(F)c1)N1CCNCC1	97 to 99
FC(F)(F)Cn1c(-c2ccccc2)cnc1S	179 to 181

SMILES	melting point [°C]
O=C(Nc1ccc(O)cc1)c1cccs1	166 to 168
c1ccc(NCC2CCCCC2)nc1	91 to 93
CC(C)(C)OC(=O)N1CCN(C(=O)CN)CC1	95 to 97
COc1ccc(OC(C)C(=O)O)cc1 (stereo not given)	91 to 93
O=C(O)COc1ccc(F)cc1Cl	140 to 142
O=C(O)CSCc1ccc(Cl)c(Cl)c1	67 to 69
COCc1cccc(CNC(=O)CCl)c1	41 to 43
C=CCNS(=O)(=O)Cc1ccc(N)cc1	124 to 126
CCN(CC)S(=O)(=O)c1ccc(N)cc1	99 to 101
CCc1ccc(C=CS(=O)(=O)Cl)cc1	66 to 68
COc1cccc(CNC(=O)CCl)c1	100 to 104
O=C(Nc1ccc(O)cc1)c1ccc(Cl)cc1	246 to 248
CC1CN(c2ccccc2N)CC(C)O1 (stereo not given)	83 to 85
CC(C)S(N)(=O)=O	44 to 46
Cc1nc2ccccc2c(=O)n1-c1ccc(F)cc1	134 to 136
CCC1(c2ccccc2)NC(=O)NC1=O (stereo not given)	203 to 205
O=C(O)c1cccc(S(=O)(=O)N2CCc3sccc3C2)c1	207 to 209
NS(=O)(=O)c1c(Cl)cccc1C(F)(F)F	155 to 157
Cc1ccc(/C=C/S(=O)(=O)Cl)cc1	111 to 113
CC(O)c1ccc(-n2cccn2)cc1 (stereo not given)	92 to 94
CSc1ccc(CN2CCNCC2)cc1	53 to 55

The remaining lines, values ahead:

melting point [°C]	SMILES
114 to 116	N#CC(N)c1cccc(Cl)c1Cl (stereo not given)
154 to 156	O=C(O)CNC(=O)c1cc(F)cc(F)c1
167 to 169	CN(C)c1ccc(NC(=S)NN)cc1
49 to 51	Cc1ccc2c(C)cc(Cl)nc2c1
77 to 79	COc1ccc(C)cc1NCCC(=O)O
77 to 79	Cc1nn(-c2ccccc2)c(N)c1C(F)(F)F
250 to 252	COc1ccc(-c2nnc(S)[nH]2)c(OC)c1
110 to 112	Cc1ccc(Oc2ccc(N)cc2Cl)c(Br)c1
30 to 32	COC(=O)c1ccc(Cl)nc1C
192 to 194	CCOC(=O)c1cc(C23CC4CC(CC(C4)C2)C3)[nH]n1
274 to 276	O=c1ccc(-c2cccc([N+](=O)[O-])c2)n[nH]1
147 to 149	COc1ccc(CNc2nccs2)cc1
99 to 101	COc1nnc(Cl)c2ccccc12
160 to 162	Cc1cc(/C=C/C(=O)O)c(C)n1-c1nccs1
74 to 78	CCOc1cc2c(cc1C=O)OC(C)C2 (stereo not given)
224 to 226	Cc1cc2cc[nH]c(=O)c2n1C
160 to 161	O=C(O)c1csc(-c2ccccc2)n1
279 to 281	Cc1ccc2c(O)c(C(=O)O)cnc2n1
111 to 113	COC(=O)c1ccc(N)c(F)c1
45 to 47	Cc1cccc(F)c1C#N
137 to 139	COc1ccc(CNS(=O)(=O)c2c[nH]nc2N)cc1

melting point [°C]	SMILES
209 to 211	COCC(C)NS(=O)(=O)c1ccc(Cl)c([N+](=O)[O-])c1 (stereo not given)
169 to 171	Cc1c(CC(=O)O)nnn1-c1ccccc1
212 to 214	Cc1cc(N)c2cc(N)ccc2n1
206 to 208	O=C(O)c1ccn(-c2c(Cl)cc([N+](=O)[O-])cc2Cl)n1
137 to 139	COC(=O)c1cccc(C(N)=S)c1
147 to 149	CC1(C)C(=O)NC(=O)N1CC#N
316 to 318	Cc1cc(C)c2c(C#N)c[nH]c2n1
39 to 41	Cc1cc(Cl)cc(C)c1C=O
177 to 179	Cc1cccc(C(=O)Nc2cccc(O)c2)n1
106 to 108	N#Cc1ccc(N2CCCC2=O)cc1
214 to 216	Cc1[nH]c(C(=O)O)c(C)c1S(N)(=O)=O
70 to 72	CC(C)Oc1ccc(Cl)c(C(=O)O)n1
177 to 179	N#Cc1ccc(OCC(=O)O)cc1
119 to 121	COC(=O)c1ccc(S(=O)(=O)Cl)cn1
192 to 194	CCCCc1ccc(NS(=O)(=O)c2ccc(C)c(C(=O)O)c2)cc1
191 to 193	c1csc(-c2ncc[nH]2)c1
205 to 207	Cc1ccc(-n2nc(C(=O)O)cc2-c2ccc(-c3ccccc3)cc2)cc1
239 to 241	O=C(O)CCc1nc2ccccc2c(=O)[nH]1
257 to 259	Nc1cc([N+](=O)[O-])ccc1C(=O)O
143 to 145	CCc1c(C(=O)CCl)[nH]c(C)c1C(C)=O
279 to 281	Cc1cc(C(=O)O)ccc1N1CCNC1=O

melting point [°C]	SMILES
58 to 60	Nc1cc(CCc2ccccc2)[nH]n1
125 to 127	COC(=O)c1ccccc1-n1ncc(Cl)c(Cl)c1=O
172 to 174	CC(C)Oc1cncc(C(=O)O)c1
78 to 80	Cc1cnn(Cc2ccc(N)cc2)c1
52 to 54	O=[N+]([O-])c1ccccc1OCC1CO1 (stereo not given)
123 to 125	Nc1cccc(-c2ccc3c(c2)CCO3)n1
248 to 250	Nc1nncc(-c2ccc(F)cc2)n1
209 to 211	O=C(O)c1c[nH]c2cccc(F)c12
136 to 138	Cc1cc(C)c(C(=O)CCl)c(C)c1C(=O)CCl
208 to 210	O=C(O)CNC(=O)c1cc(-c2ccccc2)on1
216 to 218	Brc1ccc2[nH]c3c(c2c1)CNCC3
50 to 52	CC(C)Oc1ccc(C#N)cc1
244 to 246	Cc1nc([N+](=O)[O-])cn1CC(=O)O
212 to 214	O=C(c1cccnc1)c1c[nH]c2ccccc12
239 to 241	Cc1ccc2c(c1)C(=O)N(CCCC(=O)O)C2=O
45 to 47	CN(C)S(=O)(=O)c1cccc(CCl)c1
265 to 267	CC(=O)Nc1ccc(NS(C)(=O)=O)c(C(=O)O)c1
218 to 220	O=C(O)c1ccnc(C2CC2)n1
269 to 271	O=C(Nc1ccc(C(=O)O)c(O)c1)c1cc(F)cc(F)c1
